# Data reported in US9428460B2, “N-[4-(quinolin-4-yloxy)cyclohexyl(methyl)](hetero)arylcarboxamides as androgen receptor antagonists, production and use thereof as medicinal products” (BAYER PHARMA AKTIENGESELLSCHAFT, priority 2012, dated 2016).
# Assays:
# [1] = molecular target: human androgen receptor (full length, wild-type form) (Homo sapiens (Human), UniProt P10275); assay: Transactivation assay for the wild-type androgen receptor (PC-3 cells, MMTV-luciferase reporter); type: cell-based; details: in the presence of R1881, 16 hours
# Text: For determining the androgen receptor-dependent transcription, a cellular assay system was used, consisting of PC-3 cells (Kaighn et al., Invest. Urol. 17: 16-23, 1979), which express the human androgen receptor stably and recombinantly (full length, wild-type form, see Swiss-Prot Acc. No. P10275, Entry Version 159, Sequence Version 2). In addition, these PC3 cells contain a stably integrated reporter gene plasmid, which is based on the commercially available plasmid pGL4.14 (#E6691, Promega Corporation, Madison, Wis., USA) and contains the luciferase gene from the American firefly (Photinus pyralis) under the control of the MMTV promoter (Cato et al., EMBO J. 6: 363-368, 1987). These cells were propagated in routine cell culture at 37° C. and 5% CO2 in a medium containing 90% RPMI 1640 (Invitrogen GmbH, Darmstadt, Germany), 100 U penicillin, 100 μg/ml streptomycin (Invitrogen), 4 mM L-glutamine (Invitrogen), 10% fetal calf serum (FCS Serum Gold, PAA Laboratories GmbH, Cölbe, Germany), 600 μg/ml Geneticin (G418-sulphate, Invitrogen) and 10 μg/ml puromycin (Sigma Aldrich GmbH, Germany).
# For carrying out the transactivation assays, approx. 1000 cells per well were plated out in a 384-well cell culture plate in a medium that contained activated charcoal-treated calf serum (FCS Serum Gold, PAA Laboratories) at a concentration of 5% (v/v). The test substances were added in a concentration series from 5.12×10^−12 to 1×10^−5 M in the presence of […] R1881 (methyltrienolone). The test plates were incubated overnight at 37° C. and 5% CO2. After 16 hours, 15 μl of Steady Glo Lysis and Detection reagent (E2550, Promega Corporation, Madison, Wis., USA) was added per well and the luminescence was read in a Topcount Luminometer (PerkinElmer, Waltham, Mass., USA) for 4 seconds per well. The luminescence values obtained were normalized, wherein 100% corresponded to the effect of the unstimulated control (without R1881), and 0% corresponded to the effect of the stimulated control (R1881 plus DMSO instead of test substance). The IC50 value was determined by regression analysis based on a four-parameter equation (minimum, maximum, IC50, Hill coefficient; Y=Max+(Min−Max)/(1+(X/IC50)^Hill)).
# [2] = tested on: human uterine leiomyoma xenografts; assay: Growth of human xenografts from leiomyoma tissue in immunodeficient mice; type: in vivo, mouse
# Description: The growth-inhibiting action of inhibitors of the androgen receptor was tested in a xenograft animal model with subcutaneously transplanted tissue fragments from human leiomyomas.
# Human uterine leiomyoma tissue was derived from surgery, in which, based on the diagnosis, either a hysterectomy or a myomectomy was carried out. The uterine leiomyomas (UL) were then prepared free either from the removed uterus or by myomectomy in situ; in the last-mentioned method, the myomas were removed whole or by morcellation from the abdominal cavity.
# The prepared myomas were then immediately put in a suitable sterile buffer (Vitron V7 Buffer (U.S. Pat. No. 5,328,821) or Viaspan organ transplant buffer) at 4° C. for further transport. Then, on a sterile bench with constant moistening, the UL tissue was cut into small blocks with 2×2×2 mm or 2×4×4 mm edge lengths, and the pieces of tissue were stored in a cell culture dish in PBS at room temperature until transplantation (M Fritsch et al. 2010, ISGE abstract & presentation).
# Immunodeficient mice (ICR SCID, CB17 SCID, ICR-Hrhr SCID or SCID beige mice) were ovariectomized at the age of 6-8 weeks (OVX). At the earliest one week after OVX, pellets releasing 17β-estradiol (E2, 0.05 mg/90 d, Innovative Research of America, catalogue number NE-121) and progesterone (P, 25 mg/60 d, Innovative Research of America, catalogue number SP-131) (Innovative Research of America, Sarasota, Fla./USA) were transplanted into the neck region of the animals. Alternatively, the animals can be given replacement therapy with other implants or methods that ensure continuous release of the hormones 17β-estradiol and progesterone. […]
# UL tissue in situ was as a rule characterized by an excessive synthesis and accumulation of proteins of the extracellular matrix, and by increased cell proliferation. […] If specific mechanisms of action of the test substances were known or presumed, in addition the cell proliferation and/or the proportion of the extracellular matrix were determined by histological staining. […]
# Sequence of human androgen receptor (full length, wild-type form) (P10275 whole entry): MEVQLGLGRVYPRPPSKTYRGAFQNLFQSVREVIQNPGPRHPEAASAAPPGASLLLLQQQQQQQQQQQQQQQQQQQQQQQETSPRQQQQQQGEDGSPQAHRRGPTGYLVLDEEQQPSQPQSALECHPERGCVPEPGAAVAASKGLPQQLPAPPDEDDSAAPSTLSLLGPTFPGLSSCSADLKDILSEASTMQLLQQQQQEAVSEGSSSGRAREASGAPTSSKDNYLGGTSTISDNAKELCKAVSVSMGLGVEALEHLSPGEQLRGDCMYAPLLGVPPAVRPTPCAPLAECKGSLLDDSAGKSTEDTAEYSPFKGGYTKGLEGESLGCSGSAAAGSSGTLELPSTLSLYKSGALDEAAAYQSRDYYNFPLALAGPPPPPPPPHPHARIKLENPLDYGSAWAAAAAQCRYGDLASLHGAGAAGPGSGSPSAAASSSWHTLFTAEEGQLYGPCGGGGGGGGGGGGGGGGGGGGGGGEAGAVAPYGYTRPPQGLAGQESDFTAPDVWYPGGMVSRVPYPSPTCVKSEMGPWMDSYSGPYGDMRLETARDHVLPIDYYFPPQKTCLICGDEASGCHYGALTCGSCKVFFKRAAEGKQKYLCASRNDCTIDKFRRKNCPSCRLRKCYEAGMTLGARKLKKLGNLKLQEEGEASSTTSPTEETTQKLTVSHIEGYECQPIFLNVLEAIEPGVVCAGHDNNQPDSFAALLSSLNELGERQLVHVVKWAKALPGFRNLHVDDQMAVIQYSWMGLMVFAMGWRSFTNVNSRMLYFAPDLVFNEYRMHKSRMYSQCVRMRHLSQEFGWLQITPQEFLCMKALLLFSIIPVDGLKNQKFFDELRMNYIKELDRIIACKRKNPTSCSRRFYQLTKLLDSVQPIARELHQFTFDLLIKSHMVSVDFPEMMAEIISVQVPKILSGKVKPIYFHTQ
smiles,measurement,setting,value
"N#Cc1cccc2c(O[C@H]3CC[C@H](NC(=O)c4cccc(F)c4)CC3)ccnc12 [Example 23, N-{trans-4-[(8-cyanoquinolin-4-yl)oxy]cyclohexyl}-3-fluorobenzamide]",IC50,[1],52 nM
same,inhibition of the growth of uterine leiomyoma xenografts,"[2]; 70 mg/kg/d, in 3 out of 4 independent experiments with tissue from different donors",significant inhibition
same,average inhibition of the normalized xenograft growth over the transplantation weight on day 0,[2]; dose of 25 mg/kg/d,−24%
same,average inhibition of the normalized xenograft growth over the transplantation weight on day 0,[2]; dose of 70 mg/kg/d,−59%
